Values after ≈ are worked out from the molar mass of the structure shown. Values joined by “and” are separate entries in the source; they are usually repeats but may differ in a detail not shown here. Equal values may be shown once. Read-outs that look alike come from different tables or passages of the source.
Assays:
[1] = test system: Enterococcus faecalis ATCC 29212; assay: Antibacterial screening, broth microdilution MIC; format: cell-based; details: read-out: MIC E. faecalis
S. aureus ATCC 29213 = assay: Antibacterial screening, broth microdilution MIC; format: cell-based; details: Staphylococcus aureus, ATCC29213; ATCC 29213, 24 h at 37 °C; read-out: MIC S. aureus
VRE 725B = assay: Antibacterial screening, broth microdilution MIC; format: cell-based, vancomycin-resistant E. faecalis; details: Enterococcus, read-out: MIC VRE 725B
VRE 342B = assay: Antibacterial screening, broth microdilution MIC; format: cell-based, vancomycin-resistant E. faecalis; details: Enterococcus, read-out: MIC VRE 342B
[2] = test system: Mycobacterium kansasii DSM 44162; assay: Antimycobacterial screening, broth dilution MIC; format: cell-based; details: DSM44162, 336 h, read-out: MIC M. kansasii
VRE 368 = assay: Antibacterial screening, broth microdilution MIC; format: cell-based, vancomycin-resistant E. faecalis; details: Enterococcus, read-out: MIC VRE 368
[3] = test system: Mycobacterium smegmatis ATCC 700084; assay: Antimycobacterial screening, broth dilution MIC; format: cell-based; details: Mycolicibacterium smegmatis, ATCC700084, 72 h; ATCC 700084, 3 days at 37 °C; read-out: MIC M. smegmatis
MRSA 63718 = assay: Antibacterial screening, broth microdilution MIC; format: cell-based, methicillin-resistant S. aureus; details: Staphylococcus aureus, read-out: MIC MRSA 63718
[4] = test system: Mycobacterium tuberculosis ATCC 25177/H37Ra; assay: Antimycobacterial screening, broth dilution MIC (Alamar blue); format: cell-based; details: 336 h, read-out: MIC M. tuberculosis
Description: The evaluation of in vitro antimycobacterial activity of the compounds was performed against Mycobacterium tuberculosis ATCC 25177/H37Ra, Mycobacterium kansasii DSM 44162 and Mycobacterium smegmatis ATCC 700084.
The broth dilution micro-method in Middlebrook 7H9 medium (Difco, Lawrence, KS, USA) supplemented with ADC Enrichment (Difco) was used to determine the minimum inhibitory concentration (MIC) as previously described. […] The final concentrations of the evaluated compounds, ranging from 256 to 0.125 μg mL^-1, were obtained by twofold serial dilution of the stock solution in a microtiter plate with a sterile medium. Bacterial inocula were prepared by transferring colonies from culture to sterile water. The plate was inoculated by tested microorganisms. The final concentration of bacterial cells was 1.5×10^6 for M. tuberculosis and 10^5 cells in a microtiter plate for other mycobacteria. Isoniazid and rifampicin (Sigma) were used as reference antimycobacterial drugs. Drug-free controls, sterility controls, and controls consisting of medium and DMSO alone were included. The plates were incubated for a defined time at an appropriate temperature (3 days at 37 °C for M. smegmatis, and 14 days at 37 °C for M. tuberculosis and M. kansasii). […] The MICs against M. tuberculosis were evaluated by Alamar blue (Oxoid). After incubation, 10 % of Alamar blue was added to each well, and the plate was incubated for 24 h. The MIC values were assessed as the lowest concentration of the tested compounds, which prevented changing blue resazurin to pink resorufin. The experiments were repeated three times. The minimum inhibitory concentrations (MICs) were defined as the lowest concentration of the compound at which no visible bacterial growth was observed. The MIC value is routinely and widely used in bacterial assays and is a standard detection limit according to the CLSI [60].

MRSA SA 3202 = assay: Antibacterial screening, broth microdilution MIC; format: cell-based, methicillin-resistant S. aureus; details: Staphylococcus aureus, clinical isolate, 24 h at 37 °C, read-out: MIC MRSA SA 3202
[5] = Lipophilicity determination by RP-HPLC (log k, log D); format: physicochemical; details: for log D6.5: RP-HPLC C18, MeOH 72 % / acetate-buffered saline pH 6.5; for log D7.4: RP-HPLC C18, MeOH 72 % / acetate-buffered saline pH 7.4; for log k (logarithm of the capacity factor): RP-HPLC C18, MeOH 72 % / water 28 %
Source text: An HPLC system Agilent 1200 equipped with a DAD detector (Agilent, Santa Clara, CA, USA) was used. A chromatographic column Symmetry® C18 5 μm, 4.6×250 mm, part No. WAT054275 (Waters Corp., Milford, MA, USA) was used. The HPLC separation process was monitored and evaluated with EZChrom Elite software ver. 3.3.2 (Agilent). Isocratic elution by a mixture of MeOH p.a. (72 %) and H2O-HPLC Mili-Q grade (28 %) as a mobile phase was used for the determination of capacity factor k. Isocratic elution by a mixture of MeOH p.a. (72 %) and acetate-buffered saline (pH 7.4 and pH 6.5) (28 %) as a mobile phase was used for the determination of distribution coefficients expressed as D7.4 and D6.5. The total flow of the column was 1.0 mL min^-1, the injection volume was 20 μL, the column temperature was 40 °C, and the sample temperature was 10 °C. The detection wavelength of 210 nm was chosen. A KI methanolic solution was used to determine the dead times (tD). Retention times (tR) were measured in minutes. The capacity factors k were calculated according to the formula k = (tR–tD)/tD, where tR is the retention time of the solute, and tD is the dead time obtained using an unretained analyte. The distribution coefficients DpH were calculated according to the formula DpH = (tR–tD)/tD. Each experiment was repeated three times.
The capacity factor and distribution coefficients were measured by RP-HPLC on a C18 column with methanol as an organic modifier of the mobile phase. In addition to the experimental lipophilicities, predicted log P values were also calculated using ACD/Percepta, see Table 1. […] The values of σ(Ar) are found in a wide range from 0.01 to 1.36, so the compounds contain substituents with both electron-donating and slightly electron-withdrawing properties.

E. coli ATCC 25922 = assay: Antibacterial screening, broth microdilution MIC; format: cell-based; details: Escherichia coli, ATCC25922; ATCC 25922, 24 h at 37 °C
MRSA SA 630 = assay: Antibacterial screening, broth microdilution MIC; format: cell-based, methicillin-resistant S. aureus; details: Staphylococcus aureus, clinical isolate, 24 h at 37 °C, read-out: MIC MRSA SA 630
[6] = ATCC29212, ATCC 29212, 24 h at 37 °C
[7] = clinical isolate, 24 h at 37 °C
[8] = H37Ra, 14 days at 37 °C, Alamar blue

| SMILES | MIC [1, 6] [µM] | MIC (S. aureus ATCC 29213) [µM] | MIC (VRE 725B; vanA isolate, 24 h at 37 °C) [µM] | MIC (VRE 342B; vanA isolate, 24 h at 37 °C) [µM] | MIC ([2]; DSM 44162, 14 days at 37 °C) [µM] | MIC (VRE 368; vanA isolate, 24 h at 37 °C) [µM] | MIC [3] [µM] | MIC (MRSA 63718; [7]) [µM] | MIC [4, 8] [µM] | MIC (MRSA SA 3202) [µM] | log D6.5 [5] | log D7.4 [5] | log k (logarithm of the capacity factor) [5] | MIC (E. coli ATCC 25922) [µM] | MIC (MRSA SA 630) [µM] | further results |
| --- | --- | --- | --- | --- | --- | --- | --- | --- | --- | --- | --- | --- | --- | --- | --- | --- |
| COc1ccc(NC(=O)c2c(O)ccc3ccccc23)cc1 [Compound 4, 2-hydroxy-N-(4-methoxyphenyl)naphthalene-1-carboxamide] | > 873 | > 873 | > 873 | > 873 | 218 (≈ 63.9 µg/mL) | > 873 | 436 (≈ 128 µg/mL) | > 873 | 109 (≈ 32 µg/mL) | > 873 | -0.0491 | -0.0382 | -0.0380 | 873 (≈ 256 µg/mL) | > 873 |  |
| CC1(C)S[C@@H]2[C@H](NC(=O)[C@H](N)c3ccccc3)C(=O)N2[C@H]1C(=O)O [AMP, ampicillin, reference compound] | 2.81 (≈ 0.982 µg/mL) | 5.72 (≈ 2 µg/mL) |  |  |  |  |  | 45.8 (≈ 16 µg/mL) |  | 45.8 (≈ 16 µg/mL) |  |  |  | 45.8 (≈ 16 µg/mL) | 45.8 (≈ 16 µg/mL) |  |
| COc1cc(NC(=O)c2c(O)ccc3ccccc23)cc(OC)c1OC [Compound 7, 2-Hydroxy-N-(3,4,5-trimethoxyphenyl)naphthalene-1-carboxamide] | 724 (≈ 256 µg/mL) | 838 (≈ 296 µg/mL) | 724 (≈ 256 µg/mL) | 724 (≈ 256 µg/mL) | 838 (≈ 296 µg/mL) | 724 (≈ 256 µg/mL) | 210 (≈ 74.2 µg/mL) | 838 (≈ 296 µg/mL) |  | 419 (≈ 148 µg/mL) | -0.1053 | -0.0948 | -0.1150 | 838 (≈ 296 µg/mL) | 838 (≈ 296 µg/mL) | MIC [4]: 210 µM (≈ 74.2 µg/mL) |
| COc1ccc(OC)c(NC(=O)c2c(O)ccc3ccccc23)c1 [Compound 5, N-(2,5-Dimethoxyphenyl)-2-hydroxynaphthalene-1-carboxamide] | 792 (≈ 256 µg/mL) | 792 (≈ 256 µg/mL) | 792 (≈ 256 µg/mL) | 792 (≈ 256 µg/mL) | 792 (≈ 256 µg/mL) | 792 (≈ 256 µg/mL) | 792 (≈ 256 µg/mL) | 792 (≈ 256 µg/mL) | 396 (≈ 128 µg/mL) | 792 (≈ 256 µg/mL) | 0.3263 | 0.3310 | 0.3353 | 792 (≈ 256 µg/mL) | 792 (≈ 256 µg/mL) |  |
| Cc1ccc(NC(=O)c2c(O)ccc3ccccc23)cc1C(F)(F)F [Compound 23, 2-Hydroxy-N-[4-methyl-3-(trifluoromethyl)phenyl]naphthalene-1-carboxamide] | 741 (≈ 256 µg/mL) | 23.2 (≈ 8.01 µg/mL) | 741 (≈ 256 µg/mL) | 741 (≈ 256 µg/mL) | 741 (≈ 256 µg/mL) | 741 (≈ 256 µg/mL) | 46.3 (≈ 16 µg/mL) |  | 371 (≈ 128 µg/mL) | 46.3 (≈ 16 µg/mL) | 0.4621 | 0.4636 | 0.46 and 0.4605 | 741 (≈ 256 µg/mL) | 92.7 (≈ 32 µg/mL) | MIC (MRSA 63718; 24 h): 371 µM (≈ 128 µg/mL) |
| Cc1cccc(NC(=O)c2c(O)ccc3ccccc23)c1 [Compound 9, 2-hydroxy-N-(3--methylphenyl)naphthalene-1-carboxamide] | 462 (≈ 128 µg/mL) |  | 462 (≈ 128 µg/mL) | 462 (≈ 128 µg/mL) | 115 (≈ 31.9 µg/mL) | 462 (≈ 128 µg/mL) |  | 462 (≈ 128 µg/mL) | 231 (≈ 64.1 µg/mL) |  | 0.1644 | 0.1727 | 0.1762 | 462 (≈ 128 µg/mL) |  |  |
| NNC(=O)c1ccncc1 [INH, isoniazid, reference compound] |  |  |  |  | 233 (≈ 32 µg/mL) |  | 117 (≈ 16 µg/mL) |  | 36.5 (≈ 5.01 µg/mL) |  |  |  |  |  |  |  |
| CO[C@H]1/C=C/O[C@@]2(C)Oc3c(C)c(O)c4c(O)c(c(/C=N/N5CCN(C)CC5)c(O)c4c3C2=O)NC(=O)/C(C)=C\C=C\[C@H](C)[C@H](O)[C@@H](C)[C@@H](O)[C@@H](C)[C@H](OC(C)=O)[C@@H]1C [RIF, rifampicin, reference compound] |  |  |  |  | 0.15 (≈ 0.123 µg/mL) |  | 19.4 (≈ 16 µg/mL) |  | 9.71 (≈ 7.99 µg/mL) |  |  |  |  |  |  |  |
| COc1ccccc1NC(=O)c1c(O)ccc2ccccc12 [Compound 2, 2-hydroxy-N-(2-methoxyphenyl)naphthalene-1-carboxamide] |  |  |  |  |  |  |  |  | > 873 |  | 0.3015 | 0.3069 | 0.3181 | 873 (≈ 256 µg/mL) |  | MIC ([1]; ATCC29212, 24 h): > 873 µM; MIC (VRE 725B; 24 h): > 873 µM; MIC (VRE 342B; 24 h): > 873 µM; MIC [2]: > 873 µM; MIC (VRE 368; 24 h): > 873 µM |
| Cc1ccc(NC(=O)c2c(O)ccc3ccccc23)cc1 [Compound 10, 2-hydroxy-N-(4-methylphenyl)naphthalene-1-carboxamide] | 462 (≈ 128 µg/mL) |  | 462 (≈ 128 µg/mL) | 462 (≈ 128 µg/mL) | 115 (≈ 31.9 µg/mL) | 462 (≈ 128 µg/mL) | > 923 | 462 (≈ 128 µg/mL) | 231 (≈ 64.1 µg/mL) | 462 (≈ 128 µg/mL) | 0.1553 | 0.1632 | 0.1658 | 462 (≈ 128 µg/mL) | 462 (≈ 128 µg/mL) |  |
| COc1cccc(NC(=O)c2c(O)ccc3ccccc23)c1 [Compound 3, 2-hydroxy-N-(3-methoxyphenyl)naphthalene-1-carboxamide] | > 873 | 436 (≈ 128 µg/mL) | > 873 | > 873 | 109 (≈ 32 µg/mL) | > 873 |  | 436 (≈ 128 µg/mL) | 218 (≈ 63.9 µg/mL) |  | 0.1643 | 0.1717 | 0.1751 | 873 (≈ 256 µg/mL) | 873 (≈ 256 µg/mL) |  |

Reference: publication PMC11954145, “Antimicrobial and ADME properties of methoxylated, methylated and nitrated 2-hydroxynaphthalene-1 carboxanilides” (ADMET & DMPK, 2025)
